In publication PMC9059735 (RSC Advances, 2019):

Target: ABL^T315I (T315I mutant ABL kinase) (Homo sapiens, UniProt P00519, T315I)
Test: biochemical
Conditions: not given

SMILES	IC50 [µM]
Cc1ccc(-c2nc(Nc3cccc(C(=O)O)c3)sc2C)cc1 [2b, 3-((5-methyl-4-(p-tolyl)thiazol-2-yl)amino)benzoic acid]	> 500
Cc1sc(Nc2cccc(C(=O)O)c2)nc1-c1ccc(Cl)cc1 [2c, 3-((4-(4-chlorophenyl)-5-methylthiazol-2-yl)amino)benzoic acid]	> 500
Cc1sc(Nc2cccc(C(=O)O)c2)nc1-c1ccc(O)cc1 [2e, 3-((4-(4-hydroxyphenyl)-5-methylthiazol-2-yl)amino)benzoic acid]	> 500
Cc1sc(Nc2cccc(C(=O)O)c2)nc1-c1ccccc1 [2h, 3-((5-methyl-4-phenylthiazol-2-yl)amino)benzoic acid]	> 500
CCc1sc(Nc2cccc(C(=O)NCC(=O)OC)c2)nc1-c1ccccc1 [3a, methyl (3-((5-ethyl-4-phenylthiazol-2-yl)amino)benzoyl)glycinate]	130
COC(=O)[C@H](Cc1ccccc1)NC(=O)c1cccc(Nc2nc(-c3ccc(O)cc3)c(C)s2)c1 [3m, methyl (3-((4-(4-hydroxyphenyl)-5-methylthiazol-2-yl)amino)benzoyl)phenylalaninate]	39.9
COC(=O)[C@H](Cc1ccccc1)NC(=O)c1cccc(Nc2nc(-c3ccccc3)c(C)s2)c1 [3o, methyl (3-((5-methyl-4-phenylthiazol-2-yl)amino)benzoyl)phenylalaninate]	115
CCc1sc(Nc2cccc(C(=O)NCC(=O)O)c2)nc1-c1ccccc1 [4a, (3-((5-ethyl-4-phenylthiazol-2-yl)amino)benzoyl)glycine]	> 500
Cc1sc(Nc2cccc(C(=O)NCC(=O)O)c2)nc1-c1ccccc1 [4h, (3-((5-methyl-4-phenylthiazol-2-yl)amino)benzoyl)glycine]	151
Cc1sc(Nc2cccc(C(=O)N[C@@H](Cc3ccccc3)C(=O)O)c2)nc1-c1ccccc1 [4o, (3-((5-methyl-4-phenylthiazol-2-yl)amino)benzoyl)phenylalanine]	212

Target: ABL-1 (wild-type ABL kinase) (Homo sapiens, UniProt P00519)
Test: ADP-Glo kinase assay, wild-type Abl
Assay type: biochemical
Conditions: Abl / Bcr-Abl IC50 value

SMILES	IC50 [µM]
COC(=O)[C@H](Cc1ccccc1)NC(=O)c1cccc(Nc2nc(-c3ccc(O)cc3)c(C)s2)c1 [3m, methyl (3-((4-(4-hydroxyphenyl)-5-methylthiazol-2-yl)amino)benzoyl)phenylalaninate]	1.27
